Our source for the EC50 values is patent US11072612B2, “NLRP3 modulators” (INNATE TUMOR IMMUNITY, INC., priority 2016, dated 2021).

Each structure is given as a SMILES string.

Holding throughout (assay type): cell-based
Assay [1] has as its target T1, hNLRP3 (Homo sapiens, UniProt Q96P20).
T1 construct: THP-1 cells were purchased from the American Type Culture Collection; host or cells: THP-1 cells, PMA-differentiated
In words: hNLRP3 agonist assay: IL-1β production in PMA-differentiated THP-1 cells (ELISA). Conditions: Table 2, 4 hours, IL-1β by ELISA. (In general: In an ELISA, binding on a coated surface is turned into a signal by an enzyme label.)

For assay [2], the target named is T2, TLR7 (Homo sapiens, UniProt Q9NYK1).
T2 sequence (Q9NYK1 27-1049): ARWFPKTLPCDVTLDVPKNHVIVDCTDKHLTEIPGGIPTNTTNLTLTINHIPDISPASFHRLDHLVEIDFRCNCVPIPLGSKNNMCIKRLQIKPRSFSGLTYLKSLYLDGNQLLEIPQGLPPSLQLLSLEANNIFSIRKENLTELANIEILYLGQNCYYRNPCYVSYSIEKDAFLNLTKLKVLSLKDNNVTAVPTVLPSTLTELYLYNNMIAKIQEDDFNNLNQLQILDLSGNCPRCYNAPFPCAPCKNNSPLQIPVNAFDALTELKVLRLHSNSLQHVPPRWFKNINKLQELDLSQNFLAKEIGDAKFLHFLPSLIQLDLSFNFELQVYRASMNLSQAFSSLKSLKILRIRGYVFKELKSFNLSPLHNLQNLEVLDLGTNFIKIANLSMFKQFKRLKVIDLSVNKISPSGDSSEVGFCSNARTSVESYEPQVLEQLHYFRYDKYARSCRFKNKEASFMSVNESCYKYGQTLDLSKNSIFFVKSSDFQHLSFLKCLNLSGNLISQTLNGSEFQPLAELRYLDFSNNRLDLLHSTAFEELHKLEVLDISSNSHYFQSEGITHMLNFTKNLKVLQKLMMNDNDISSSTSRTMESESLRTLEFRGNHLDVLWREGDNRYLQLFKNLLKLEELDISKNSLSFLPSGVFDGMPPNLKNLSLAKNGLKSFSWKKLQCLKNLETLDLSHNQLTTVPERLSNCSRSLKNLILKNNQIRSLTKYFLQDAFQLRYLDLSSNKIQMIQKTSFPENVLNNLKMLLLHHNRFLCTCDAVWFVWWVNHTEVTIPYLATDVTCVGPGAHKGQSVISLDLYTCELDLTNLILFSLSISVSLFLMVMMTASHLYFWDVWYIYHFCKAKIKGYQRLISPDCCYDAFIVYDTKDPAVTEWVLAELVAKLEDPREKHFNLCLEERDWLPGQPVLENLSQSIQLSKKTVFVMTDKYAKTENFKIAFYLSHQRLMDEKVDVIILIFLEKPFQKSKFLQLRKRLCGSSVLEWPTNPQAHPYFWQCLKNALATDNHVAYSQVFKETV
In words: TLR7 EC50 assay. Conditions: Table 2.

For assay [3], the target named is T3, TLR8 (Homo sapiens, UniProt Q9NR97).
T3 sequence (Q9NR97 27-1041): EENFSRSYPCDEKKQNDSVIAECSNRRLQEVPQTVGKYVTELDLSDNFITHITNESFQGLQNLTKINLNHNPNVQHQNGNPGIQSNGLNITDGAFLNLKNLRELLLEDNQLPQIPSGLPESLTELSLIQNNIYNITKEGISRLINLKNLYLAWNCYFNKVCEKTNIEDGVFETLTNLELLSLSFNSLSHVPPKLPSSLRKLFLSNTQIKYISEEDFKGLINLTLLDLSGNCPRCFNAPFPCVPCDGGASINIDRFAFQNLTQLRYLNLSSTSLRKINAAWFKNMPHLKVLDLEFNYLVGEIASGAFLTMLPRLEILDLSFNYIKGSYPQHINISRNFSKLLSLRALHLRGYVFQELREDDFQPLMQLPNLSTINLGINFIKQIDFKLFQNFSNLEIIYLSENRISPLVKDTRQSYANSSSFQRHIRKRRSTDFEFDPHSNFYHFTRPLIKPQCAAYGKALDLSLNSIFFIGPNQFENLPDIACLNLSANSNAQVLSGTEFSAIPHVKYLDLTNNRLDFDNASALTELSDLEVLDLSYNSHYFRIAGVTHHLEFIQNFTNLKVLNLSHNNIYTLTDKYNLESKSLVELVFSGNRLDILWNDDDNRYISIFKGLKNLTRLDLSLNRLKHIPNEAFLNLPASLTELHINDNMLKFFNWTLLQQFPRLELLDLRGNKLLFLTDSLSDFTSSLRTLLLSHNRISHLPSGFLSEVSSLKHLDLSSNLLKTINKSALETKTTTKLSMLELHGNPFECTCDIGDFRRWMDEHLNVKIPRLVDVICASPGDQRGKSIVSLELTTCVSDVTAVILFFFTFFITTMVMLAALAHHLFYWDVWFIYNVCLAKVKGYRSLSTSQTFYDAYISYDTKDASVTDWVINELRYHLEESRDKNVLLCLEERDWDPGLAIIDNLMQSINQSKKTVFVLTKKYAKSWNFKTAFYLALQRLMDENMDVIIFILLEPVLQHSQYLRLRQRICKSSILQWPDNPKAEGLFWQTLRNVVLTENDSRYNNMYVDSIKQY
In words: TLR8 EC50 assay. Conditions: Table 2.

T1 sequence (Q96P20 whole entry): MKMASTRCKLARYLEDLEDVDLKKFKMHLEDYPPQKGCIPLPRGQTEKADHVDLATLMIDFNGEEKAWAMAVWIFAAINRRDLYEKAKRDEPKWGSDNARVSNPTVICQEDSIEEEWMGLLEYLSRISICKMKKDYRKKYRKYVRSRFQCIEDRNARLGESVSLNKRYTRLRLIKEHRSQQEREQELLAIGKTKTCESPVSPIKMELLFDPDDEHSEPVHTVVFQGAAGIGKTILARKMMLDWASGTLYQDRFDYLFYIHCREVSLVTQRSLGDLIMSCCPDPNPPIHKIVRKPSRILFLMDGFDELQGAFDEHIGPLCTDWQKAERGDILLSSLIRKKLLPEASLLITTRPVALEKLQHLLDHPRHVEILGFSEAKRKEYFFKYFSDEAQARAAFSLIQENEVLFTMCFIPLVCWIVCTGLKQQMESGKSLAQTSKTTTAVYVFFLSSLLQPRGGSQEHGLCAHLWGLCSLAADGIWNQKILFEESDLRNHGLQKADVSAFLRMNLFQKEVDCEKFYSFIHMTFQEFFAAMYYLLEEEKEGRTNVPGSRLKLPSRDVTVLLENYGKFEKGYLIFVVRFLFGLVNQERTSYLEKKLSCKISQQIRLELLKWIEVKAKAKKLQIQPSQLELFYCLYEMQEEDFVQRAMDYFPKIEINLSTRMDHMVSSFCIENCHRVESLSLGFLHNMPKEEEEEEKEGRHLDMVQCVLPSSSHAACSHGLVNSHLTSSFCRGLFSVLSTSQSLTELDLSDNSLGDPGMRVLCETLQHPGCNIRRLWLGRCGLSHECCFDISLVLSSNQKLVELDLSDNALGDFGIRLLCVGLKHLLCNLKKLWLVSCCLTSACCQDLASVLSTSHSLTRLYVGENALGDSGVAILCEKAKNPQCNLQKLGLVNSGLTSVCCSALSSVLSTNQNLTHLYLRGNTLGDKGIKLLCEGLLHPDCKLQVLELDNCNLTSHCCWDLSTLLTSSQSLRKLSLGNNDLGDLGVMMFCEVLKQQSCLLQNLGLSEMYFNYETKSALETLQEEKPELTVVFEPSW

For `Cc1ccc(-c2ccc3c(c2)nc(N)c2nc(CCCO)[nH]c23)cc1` [Compound 210, 3-[4-amino-7-(4-methylphenyl)-1H-imidazo[4,5-c]quinolin-2-yl]propan-1-ol], the EC50 in assay [1], in assay [2] and in assay [3] was above 100 µM in each case.
As for `Cc1ncc(-c2ccc3c(c2)nc(N)c2nc(CCCO)[nH]c23)cn1` [Compound 155, 3-[4-amino-7-(2-methylpyrimidin-5-yl)-1H-imidazo[4,5-c]quinolin-2-yl]propan-1-ol], the EC50 (commonly the midpoint of the concentration-response curve) in assay [1] was 1 to 20 µM; in assay [2], above 100 µM; in assay [3], above 100 µM.
For `Nc1nc2cc(-c3cccs3)ccc2c2[nH]c(CCCO)nc12` [Compound 187, 3-(4-amino-7-thiophen-2-yl-1H-imidazo[4,5-c]quinolin-2-yl)propan-1-ol], the figures for the EC50 in assay [1], in assay [2] and in assay [3] were at most 1 µM, above 100 µM and above 100 µM, respectively.
As for `CN(C)C(=O)CCCn1c(CCCO)nc2c(N)nc3cc(Br)ccc3c21` [Compound 169], the EC50 in assay [1] is 1 to 20 µM; in assay [2] it was above 100 µM; in assay [3] it was above 100 µM.
As to `COc1ccncc1-c1ccc2c(c1)nc(N)c1nc(CCCO)[nH]c12` [Compound 171, 3-[4-amino-7-(4-methoxypyridin-3-yl)-1H-imidazo[4,5-c]quinolin-2-yl]propan-1-ol], the EC50 in assay [1], in assay [2] and in assay [3] was above 100 µM in each case.
Turning to `CC(C)(C)OC(=O)N1CCC(c2nc3c(N)nc4cc(Br)ccc4c3[nH]2)CC1` [Compound 225], the results for the concentration for a half-maximal effect (EC50) in assay [1], in assay [2] and in assay [3] were 1 to 20 µM, above 100 µM and above 100 µM, respectively.
As for `Nc1nc2cc(-c3cccnc3)ccc2c2[nH]c(CCCO)nc12` [Compound 147, 3-(4-amino-7-pyridin-3-yl-1H-imidazo[4,5-c]quinolin-2-yl)propan-1-ol], the EC50 in assay [1] was 1 to 20 µM; in assay [2] it was above 100 µM; in assay [3] it was above 100 µM.
Regarding `Nc1nc2cc(-c3ccccn3)ccc2c2[nH]c(CCCO)nc12` [Compound 185, 3-(4-amino-7-pyridin-2-yl-1H-imidazo[4,5-c]quinolin-2-yl)propan-1-ol], the EC50 in assay [1] is at most 1 µM; in assay [2], above 100 µM; in assay [3] it was above 100 µM.
On to `Nc1nc2cc(-n3cccn3)ccc2c2[nH]c(CCCO)nc12` [Compound 178, 3-(4-amino-7-pyrazol-1-yl-1H-imidazo[4,5-c]quinolin-2-yl)propan-1-ol], for which the EC50 in assay [1] was at most 1 µM; in assay [2], above 100 µM; in assay [3], 20 to 100 µM.
The like results for `Nc1nc2cc(-c3cccc(Cl)c3)ccc2c2[nH]c(CCCO)nc12` [Compound 204, 3-[4-amino-7-(3-chlorophenyl)-1H-imidazo[4,5-c]quinolin-2-yl]propan-1-ol] were, in that order, above 100 µM, above 100 µM and above 100 µM.
Consider `CN1CCC[C@@H](c2nc3c(N)nc4ccccc4c3[nH]2)C1` [Compound 139], for which the figures for the EC50 in assay [1], in assay [2] and in assay [3] were 20 to 100 µM, above 100 µM and above 100 µM, respectively.
As for `N#Cc1cccc(-c2ccc3c(c2)nc(N)c2nc(CCCO)[nH]c23)c1` [Compound 207, 3-[4-amino-2-(3-hydroxypropyl)-1H-imidazo[4,5-c]quinolin-7-yl]benzonitrile], the EC50 in assay [1], in assay [2] and in assay [3] was above 100 µM in each case.
Regarding `Nc1nc2cc(Br)ccc2c2[nH]c(C3CCN(S(=O)(=O)c4ccccc4)CC3)nc12` [Compound 220], the values for the EC50 in assay [1], in assay [2] and in assay [3] were 1 to 20 µM, above 100 µM and above 100 µM, respectively.
As to `Nc1nc2cc(-c3ccc(Cl)cc3)ccc2c2[nH]c(CCCO)nc12` [Compound 209, 3-[4-amino-7-(4-chlorophenyl)-1H-imidazo[4,5-c]quinolin-2-yl]propan-1-ol], the EC50 in assay [1], in assay [2] and in assay [3] was above 100 µM in each case.
